Experimental findings from patent US20200093852A1, “Methods of Treating Ocular Disorders” (priority 2016, published 2020) are described below.

Each structure is given as a SMILES string. Counter-ions that a name gives are not always drawn.

In one assay the target is T1, Recombinant human active heparanase (Homo sapiens, UniProt Q9Y251).
T1 construct: Recombinant human active heparanase derived from Chinese hamster ovary cells; purchased R&D Systems; host or cells: Chinese hamster ovary cells
T1 sequence (Q9Y251 158-543 limits assumed): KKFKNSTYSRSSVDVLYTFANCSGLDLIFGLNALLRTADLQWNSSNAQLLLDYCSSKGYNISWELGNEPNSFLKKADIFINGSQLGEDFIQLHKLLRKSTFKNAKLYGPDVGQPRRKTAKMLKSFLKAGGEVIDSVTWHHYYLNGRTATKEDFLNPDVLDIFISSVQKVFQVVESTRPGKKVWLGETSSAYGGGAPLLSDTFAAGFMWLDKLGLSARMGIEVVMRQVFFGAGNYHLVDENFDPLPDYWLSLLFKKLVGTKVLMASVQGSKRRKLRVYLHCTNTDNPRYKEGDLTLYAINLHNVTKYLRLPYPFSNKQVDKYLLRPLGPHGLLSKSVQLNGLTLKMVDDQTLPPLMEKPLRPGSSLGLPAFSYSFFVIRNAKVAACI
T1 sequence (Q9Y251 36-109 limits assumed): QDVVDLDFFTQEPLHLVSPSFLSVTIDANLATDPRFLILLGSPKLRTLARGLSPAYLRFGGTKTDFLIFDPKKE
The assay can be described thus: Heparanase enzyme inhibition assay (fondaparinux substrate, WST-1 detection). Format: biochemical. Particulars: IC50 heparanase inhibition by compounds of Formula 1, Table 3. The protocol:
Recombinant human active heparanase derived from Chinese hamster ovary cells was from R&D Systems. […] The plates were washed three times with PBST, shaken dry, and stored for up to two weeks at 4° C. before use. […] Following initiation of the reaction by addition of fondaparinux, the plate was sealed with adhesive film and incubated at 37° C. for 20-24 h.
Test compounds were dissolved and added to the assay at varying concentrations to calculate the level of inhibition.
Turning to `COc1cc2nc(-c3cccc4cccnc34)nc(NCCc3ccccc3)c2cc1OC` [BT-2164], the IC50 amounted to 6.1 µM.

Staying with this assay, now noted: IC50 heparanase inhibition by compounds of Formula 2-4, Table 4.
`CCOC(=O)CSc1nc2cc(OC)c(OC)cc2c(=N)n1CCNC(=O)c1cc2ccccc2[nH]1` [BT-2136]: the half-maximal inhibitory concentration (IC50) stood at 26.8 µM.

Staying with this assay, now noted: Table 3; read-out: IC50 heparanase inhibition by compounds of Formula 1.
Consider `COc1cc2nc(NCCNC(=O)c3nnc(-c4ccccc4)o3)nc(NCCc3ccccc3)c2cc1OC` [BT-2170], for which the IC50 amounted to 55 µM.

Regarding `COc1cc2nc(-c3ccc4ccccc4c3)nc(NCCc3c[nH]c4ccccc34)c2cc1OC` [BT-2057], the IC50 came to 56 µM.

In the case of `COc1cc2nc(-c3ccc4[nH]ccc4c3)nc(NCCc3c[nH]c4ccccc34)c2cc1OC` [BT-2005], the IC50 is 41 µM.

As to `COC(=O)c1ccc2c(S(=O)(=O)NC3CN(c4nc(N)c5cc(OC)c(OC)cc5n4)C3)c[nH]c2c1` [BT-2148], the half-maximal inhibitory concentration (IC50) turned out to be 20.5 µM.

For `COc1cc2nc(NCCNC(=O)c3nnc(-c4cccc(F)c4)o3)nc(N)c2cc1OC` [BT-2185], the IC50 was determined as 22 µM.

`COc1cc2nc(NCCNC(=O)c3nnc(-c4c[nH]c5ncccc45)o3)nc(N)c2cc1OC` [BT-2177]: the 50% inhibitory concentration (IC50) came to 21 µM.

Take `COc1cc2nc(-c3cccc4cccnc34)nc(NC3CN(C(=O)c4cc5ccccc5[nH]4)C3)c2cc1OC` [BT-2120]: the IC50 came out at 0.7 µM.

`COc1cc2nc(N3CCN(C(=O)C4COc5ccccc5O4)CC3)nc(N)c2cc1OC` (stereo not shown) [BT-2013, doxazosin mesylate, reference compound]: the half-inhibitory concentration (IC50) was 57.5 µM.

For `COc1cc2nc(-c3cccc4cccnc34)nc(NCCc3ccccn3)c2cc1OC` [BT-2178], the IC50 was 11 µM.

On to `COc1cc2nc(N3CC(NC(=O)c4nnc(-c5ccccc5)o4)C3)nc(N)c2cc1OC` [BT-2167], for which the 50% inhibitory concentration (IC50) worked out at 33 µM.

On to `COc1cc2nc(NCCNC(=O)c3nnc(-c4ccccc4)s3)nc(N)c2cc1OC` [BT-2229], for which the half-maximal inhibitory concentration (IC50) was 13.4 µM.

Regarding `COc1cc2nc(-c3cccc4cccnc34)nc(NCCNS(=O)(=O)c3ccccc3)c2cc1OC` [BT-2184], the IC50 was found to be 3.39 µM.

Take `COc1cc2nc(NCCNC(=O)c3nnc(-c4cc5ccccc5[nH]4)o3)nc(N)c2cc1OC` [BT-2169]: the 50% inhibitory concentration (IC50) is 3.3 µM.

In the case of `COc1cc2nc(-c3ccccc3CN3CCOCC3)nc(NCCc3c[nH]c4ccccc34)c2cc1OC` [BT-2090], the IC50 amounted to 53.6 µM.

With `COc1cc2nc(NCCNC(=N)N)nc(NCCc3c[nH]c4ccccc34)c2cc1OC` [BT-2182], the IC50 was 18 µM.

Turning to `COc1cc2nc(NCCNC(=O)c3nnc(-c4cc5ccccc5[nH]4)o3)nc(N)c2cc1OC` [BT-2173], the IC50 is 4.3 µM.

Consider `COc1cc2nc(-c3ccc4c(c3)OCCO4)nc(NCCc3c[nH]c4ccccc34)c2cc1OC` [BT-2171], for which the 50% inhibitory concentration (IC50) is 14 µM.

For `COc1cc2nc(NCCc3ccccn3)nc(NCCc3c[nH]c4ccccc34)c2cc1OC` [BT-2179], the half-maximal inhibitory concentration (IC50) was 18 µM.

For the molecule `COc1cc2nc(-c3cccc4cccnc34)nc(NCCNC(=O)c3nnc(-c4ccccc4)o3)c2cc1OC` [BT-2187], the IC50 was determined as 4.1 µM.

Regarding `COc1cc2nc(-c3cccc4cccnc34)nc(NCCc3c[nH]c4ccccc34)c2cc1OC` [BT-2062], the IC50 turned out to be 1 µM.

Turning to `COc1cc2nc(-c3cccc4cccnc34)nc(NCCNC(=N)N)c2cc1OC` [BT-2181], the half-inhibitory concentration (IC50) worked out at 11 µM.

Consider `COc1cc2nc(-c3cncc4ccccc34)nc(NCCc3c[nH]c4ccccc34)c2cc1OC` [BT-2007], for which the IC50 stood at 92.7 µM.

As for `COc1cc2nc(NCCNC(=O)c3cc(-c4ccccc4)on3)nc(N)c2cc1OC` [BT-2161], the IC50 turned out to be 18.9 µM.

Still in this assay, the particulars now being: Table 4; read-out: IC50 heparanase inhibition by compounds of Formula 2-4.
Regarding `COc1cc2[nH]c(=S)n(CCNC(=O)c3ccc(-c4ccccc4)[nH]3)c(=N)c2cc1OC` [BT-2113], the half-inhibitory concentration (IC50) was 10.6 µM.

Regarding `COc1cc2[nH]c(=S)n(CCNC(=O)c3cc(-c4ccccc4)on3)c(=N)c2cc1OC` [BT-2133], the 50% inhibitory concentration (IC50) was found to be 31.7 µM.

With `COc1cc2nc(SC)n(CCNC(=O)c3cc4ccccc4[nH]3)c(=N)c2cc1OC` [BT-2134], the IC50 came to 24.9 µM.

For `COc1ccc(-c2ccc3[nH]c(C(=O)NCCn4c(=S)[nH]c5cc(OC)c(OC)cc5c4=N)cc3c2)cn1` [BT-2066], the IC50 turned out to be 4.2 µM.

For `COc1cc2[nH]c(=S)n(CCNC(=O)c3cc4cc(-c5ccc(C(=O)N6CCN(C)CC6)cc5)ccc4[nH]3)c(=N)c2cc1OC` [BT-2068], the IC50 stood at 2.8 µM.

With `COc1cc2[nH]c(=S)n(CCNC(=O)c3cc4ccc(-c5cccnc5)cc4[nH]3)c(=N)c2cc1OC` [BT-2072], the half-inhibitory concentration (IC50) came to 3.1 µM.

For the molecule `COc1cc2nc(SCc3ccc(C(F)(F)F)cc3)n(CCNC(=O)c3cc4cc(-c5cccnc5)ccc4[nH]3)c(=N)c2cc1OC` [BT-2152], the IC50 was determined as 2.89 µM.

With `COc1cc2[nH]c(=S)n(CCNC(=O)c3cc4cc(-c5cccnc5)ccc4[nH]3)c(=N)c2cc1OC` [BT-2070], the half-inhibitory concentration (IC50) was 1 µM.

Take `COc1cc2[nH]c(=S)n(CCNC(=O)c3c[nH]c4c(O)cccc34)c(=N)c2cc1OC` [BT-2103]: the IC50 was determined as 10.7 µM.

Consider `COc1cc2nc(SCc3cccc(C(F)(F)F)c3)n(CCNC(=O)c3cc4ccc(-c5cccnc5)cc4[nH]3)c(=N)c2cc1OC` [BT-2137], for which the IC50 is 28 µM.

Take `COc1cc2[nH]c(=S)n(CCNC(=O)c3cc4ccccc4[nH]3)c(=N)c2cc1OC` [BT-2058]: the IC50 stood at 9 µM.

`COc1cc2[nH]c(=S)n(CCNC(=O)c3n[nH]c4ccccc34)c(=N)c2cc1OC` [BT-2100]: the concentration for half-maximal inhibition (IC50) was 37 µM.

Turning to `COc1cc2nc(SCc3ccc(OC(F)(F)F)cc3)n(CCNC(=O)c3cc4cc(-c5cccnc5)ccc4[nH]3)c(=N)c2cc1OC` [BT-2153], the half-inhibitory concentration (IC50) was determined as 5.7 µM.

Turning to `COc1cc2[nH]c(=S)n(CCNC(=O)c3c[nH]c4ccccc34)c(=N)c2cc1OC` [BT-2071], the half-inhibitory concentration (IC50) stood at 7 µM.

Regarding `COc1cc2nc(SCc3ccc(C(F)(F)F)cc3)n(CCNC(=O)c3cc4ccc(-c5cccnc5)cc4[nH]3)c(=N)c2cc1OC` [BT-2138], the IC50 came to 5.9 µM.
